What all share (assay): Bliss excess, mean over the matrix (fraction); higher = more synergy
The test system of experiment [1] is DiFi (Colorectal Carcinoma). The gist of the method:
(§1)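 After 24 hours at 37°C and 5% CO2 in 1536-well plates, cells in DMEM/F12 or RPMI plus 10% FBS received two-drug dose matrices for 72 hours. Viability came from CellTiter-Glo 2.0 luminescence and was scaled as inhibition, anchored at 0 by vehicle wells and at 1 by blank wells. Combination Emax is taken as the second-highest inhibition in the matrix, and Bliss excess as the observed combination effect less EA + EB − EA·EB, with EA and EB the single-agent effects.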

Experiment [2] has as its system P12-ICHIKAWA (T-Lymphoblastic Leukemia). In a few lines: as §1
The subject of experiment [3] is TE-6 (Esophageal Squamous Cell Carcinoma). The gist of the method: as §1
Experiment [4] deals with NCI-H847 (Small Cell Lung Carcinoma). The gist of the method: as §1
Experiment [5] concerns K-562 (Chronic Myelogenous Leukemia). The gist of the method: as §1
A further experiment deals with ES8 (Ewing's Sarcoma). The gist of the method: as §1
The test system of a further experiment is TC-71 (Ewing's Sarcoma). In a few lines: as §1
Experiment [6] concerns MKN28 (Gastric Carcinoma). The gist of the method: as §1
Experiment [7] has as its system PANC-08-13 (Pancreatic Carcinoma). In a few lines:
as §1

The subject of experiment [8] is KCL-22 (Chronic Myelogenous Leukemia). The gist of the method: as §1
Experiment [9] has as its system SR (Other Blood Carcinomas). In a few lines:
as §1

Experiment [10] deals with NCI-H1792 (Lung Adenocarcinoma). The gist of the method:
as §1

In experiment [11] the test system is MOLT-16 (T-Lymphoblastic Leukemia). In a few lines: as §1
A further experiment concerns WM-115 (Melanoma). The gist of the method:
as §1

Experiment [12] has as its system KYSE-180 (Esophageal Squamous Cell Carcinoma). In a few lines:
as §1

Experiment [13] deals with GR-ST (B-Lymphoblastic Leukemia). The gist of the method:
as §1

Experiment [14] relates to EVSA-T (Breast Carcinoma). The gist of the method: as §1
A further experiment has as its system LN-18 (Glioblastoma). The gist of the method:
as §1

Experiment [15] relates to MFM-223 (Breast Carcinoma). In a few lines: as §1
Experiment [16] relates to HL-60 (Acute Myeloid Leukemia). In a few lines:
as §1

Structures are written as SMILES.

Regarding `CN(CCO)CC[C@H](CSc1ccccc1)Nc1ccc(S(=O)(=O)NC(=O)c2ccc(N3CCC([C@@H](O)c4ccccc4-c4ccc(Cl)cc4)CC3)cc2)cc1S(=O)(=O)C(F)(F)F` [AZD4320] + C[C@@H](Nc1cc(F)cc(F)c1)c1cc(C(=O)N(C)C)cc2c(=O)cc(N3CCOCC3)oc12 [AZD8186] (first compound max 1 µM, 7x7, partner max 3 µM), the Bliss excess in experiment [1] is -0.034; in experiment [2], 0.0502; in experiment [3], 0.0313; in experiment [4], 0.0851; in experiment [5] it was 0.0309; in the experiment with ES8 (Ewing's Sarcoma), 0.0142. The Bliss excess is -0.027 with TC-71 (Ewing's Sarcoma); 0.0229 in experiment [6]; -0.007 in experiment [7]; 0.0307 in experiment [8]; 0.0428 in experiment [9]; 0.0942 in experiment [10]. For the same compound, the Bliss excess is -0.0157 in experiment [11]; 0.0755 with WM-115 (Melanoma); 0.0343 in experiment [12]; -0.054 in [13]; 0.0222 in experiment [14]; 0.0608 with LN-18 (Glioblastoma). Further, the Bliss excess in [15] was -0.0059.

Take `CN(CCO)CC[C@H](CSc1ccccc1)Nc1ccc(S(=O)(=O)NC(=O)c2ccc(N3CCC([C@@H](O)c4ccccc4-c4ccc(Cl)cc4)CC3)cc2)cc1S(=O)(=O)C(F)(F)F` [AZD4320] + Cc1cc2ncnn2cc1Nc1ncc2c(n1)n(C1CCOCC1)c(=O)n2C [AZD7648] (first compound max 1 µM, 7x7, partner max 10 µM): the Bliss excess is -0.0203 in experiment [1]; -0.002 in [2]; -0.0059 in experiment [3]; 0.0478 in experiment [4]; -0.0332 in experiment [5]; -0.0594 in the experiment with ES8 (Ewing's Sarcoma). For the same compound, the Bliss excess was -0.0201 in the experiment with TC-71 (Ewing's Sarcoma); -0.036 in [6]; -0.042 in [7]; 0.0444 in experiment [8]; -0.0189 in experiment [9]; -0.024 in experiment [10]. Further, the Bliss excess was -0.0059 in experiment [11]; -0.0054 in the experiment with WM-115 (Melanoma); -0.0091 in experiment [12]; -0.0157 in experiment [13]; -0.0237 in experiment [14]; 0.0064 with LN-18 (Glioblastoma). Also, the Bliss excess was 0.0074 in experiment [16] and -0.0229 in experiment [15].

With `Cc1c2c(nn1C)CSCc1cc(n(C)n1)CSc1cc(c3ccccc3c1)OCCCc1c(C(=O)O)n(C)c3c-2c(Cl)ccc13` [AZD5991] + C[C@@H](Nc1cc(F)cc(F)c1)c1cc(C(=O)N(C)C)cc2c(=O)cc(N3CCOCC3)oc12 [AZD8186] (first compound max 1 µM, 7x7, partner max 3 µM), the Bliss excess is 0.0406 in experiment [1]; -0.0058 in experiment [2]; -0.0515 in experiment [3]; 0.0632 in [4]; 0.0096 in [5]; 0.042 with ES8 (Ewing's Sarcoma). Besides, the Bliss excess with TC-71 (Ewing's Sarcoma) is 0.0276; in experiment [6] it was -0.0326; in experiment [7], 0.0187; in [8], -0.0268; in [9], -0.0278; in experiment [10] it was -0.0108. Besides, the Bliss excess in [11] is -0.0154; in the experiment with WM-115 (Melanoma), 0.018; in [12], 0.0187; in [13] it was -0.0352; in experiment [14], 0.0412; with LN-18 (Glioblastoma), 0.0079. The Bliss excess in experiment [15] is -0.047.

Consider `COc1cccc(OCCCN)c1-c1cc(Nc2cnc(C#N)cn2)n[nH]1` [Prexasertib] + Cc1cc2ncnn2cc1Nc1ncc2c(n1)n(C1CCOCC1)c(=O)n2C [AZD7648] (first compound max 1 µM, 7x7, partner max 10 µM), for which the Bliss excess in experiment [1] was -0.0046; in [3], 0.001; in experiment [4], 0.0131; in experiment [5] it was -0.0282; in the experiment on ES8 (Ewing's Sarcoma), -0.0489; in the experiment with TC-71 (Ewing's Sarcoma), -0.0419. Also, the Bliss excess in [6] is -0.0172; in experiment [7], -0.0089; in experiment [8], -0.0133; in experiment [9] it was 0.0003; in [10], -0.0227; in experiment [11] it was 0.0121. Further, the Bliss excess is -0.0102 with WM-115 (Melanoma); -0.0431 in experiment [12]; -0.0363 in experiment [13]; 0.017 in experiment [14]; -0.0198 in the experiment on LN-18 (Glioblastoma); 0.0133 in experiment [16]. The Bliss excess in experiment [15] came out at 0.0065.

Take `COc1cccc(OCCCN)c1-c1cc(Nc2cnc(C#N)cn2)n[nH]1` [Prexasertib] + O=C(c1cc(Cc2n[nH]c(=O)c3ccccc23)ccc1F)N1CCN(C(=O)C2CC2)CC1 [Olaparib] (first compound max 1 µM, 7x7, partner max 10 µM): the Bliss excess in experiment [1] was -0.0265; in experiment [3], -0.0452; in experiment [4] it was -0.0027; in experiment [5], -0.105; in the experiment on ES8 (Ewing's Sarcoma), -0.066; in the experiment with TC-71 (Ewing's Sarcoma) it was -0.017. Besides, the Bliss excess in experiment [6] is -0.133; in experiment [7], -0.076; in experiment [8], -0.0599; in experiment [9] it was 0.0119; in [10] it was -0.0161; in [11] it was -0.0198. In addition, the Bliss excess in the experiment with WM-115 (Melanoma) was -0.0557; in [12], -0.0371; in experiment [13], -0.111; in experiment [14], -0.0312; in the experiment on LN-18 (Glioblastoma), -0.0368; in [16], -0.0781. Further, the Bliss excess in experiment [15] is -0.124.

`COc1cc2c(cc1OCCCCCOc1cc3c(cc1OC)C(=O)N1C=C(C)C[C@H]1C=N3)N=C[C@@H]1CC(C)=CN1C2=O` [SG3199] + O=C(c1cc(Cc2n[nH]c(=O)c3ccccc23)ccc1F)N1CCN(C(=O)C2CC2)CC1 [Olaparib] (first compound max 0.001 µM, 7x7, partner max 10 µM): the Bliss excess is -0.0495 in experiment [1]; -0.0256 in experiment [3]; -0.0375 in [4]; -0.0041 in [5]; -0.0206 in the experiment on ES8 (Ewing's Sarcoma); -0.0224 in the experiment with TC-71 (Ewing's Sarcoma). In addition, the Bliss excess was -0.0469 in experiment [6]; -0.0319 in experiment [7]; -0.0049 in [8]; 0.0238 in [9]; -0.0479 in [10]; 0.0336 in [11]. The Bliss excess in the experiment with WM-115 (Melanoma) was -0.0494; in [12], -0.0177; in [13] it was -0.0339; in experiment [14], -0.0094; in the experiment with LN-18 (Glioblastoma), -0.0119; in [16], -0.034. Moreover, in experiment [15], the Bliss excess was -0.0307.

Take `CCc1c2c(nc3ccc(O)cc13)-c1cc3c(c(=O)n1C2)COC(=O)[C@]3(O)CC` [SN-38] + CN(C)CCCOc1ccc(-c2ccc3ncc4c(c3c2)n(C2CCOCC2)c(=O)n4C)cn1 [AZD0156] (first compound max 0.3 µM, 7x7, partner max 1 µM): the Bliss excess is 0.0735 in experiment [1]; -0.0254 in experiment [3]; -0.023 in [4]; 0.0331 in experiment [5]; 0.0458 in the experiment on ES8 (Ewing's Sarcoma); 0.0736 in the experiment on TC-71 (Ewing's Sarcoma). The Bliss excess in experiment [6] was 0.0117; in [7] it was -0.0316; in [8], 0.0872; in [9] it was 0.0878; in experiment [10], 0.0517; in experiment [11] it was 0.0538. Besides, the Bliss excess in the experiment on WM-115 (Melanoma) was -0.0408; in experiment [12], 0.0421; in experiment [13], -0.0319; in experiment [14], -0.0354; in the experiment on LN-18 (Glioblastoma), 0.0759; in [16], 0.115. Further, the Bliss excess in experiment [15] was -0.0144.

(Values after the supplement of paper PMC11061612.)
